Key:
[1] = target: norepinephrine uptake site (norepinephrine transporter), rat forebrain membranes (Rattus norvegicus, UniProt Q9WTR4); details: comparison of Table 1 Ki values
Procedure: Reactions were carried out in 50 mM TRIS-HCl (pH 7.4), containing 300 mM NaCl and 5 mM KCl at 0° C. to 4 ° C for 4 hours. The reaction was terminated by rapid vacuum filtration onto glass fiber filters. Radioactivity trapped in the filters was determined and compared to control values in order to ascertain the interactions of the test compound with the norepinephrine uptake site.

[2] = target: T1, serotonin transporter binding site, rat forebrain membranes (Rattus norvegicus, UniProt P31652); assay: Serotonin Transporter Binding Assay ([3H]-citalopram); details: comparison of Table 2 Ki values
T1 construct: The receptor source was rat forebrain membranes; from tissue; host or cells: rat forebrain membranes
Procedure: Reactions were carried out in 50 mM TRIS-HCl (pH 7.4) containing 120 mM NaCl and 5 mM KCl at 25° C. for 60 minutes. The reaction was terminated by rapid vacuum filtration onto glass fiber filters. Radioactivity trapped in the filters was determined using liquid scintillation spectrometry and compared to control values in order to ascertain any interactions of test compound with the serotonin transporter binding site.

T1 sequence (P31652 whole entry): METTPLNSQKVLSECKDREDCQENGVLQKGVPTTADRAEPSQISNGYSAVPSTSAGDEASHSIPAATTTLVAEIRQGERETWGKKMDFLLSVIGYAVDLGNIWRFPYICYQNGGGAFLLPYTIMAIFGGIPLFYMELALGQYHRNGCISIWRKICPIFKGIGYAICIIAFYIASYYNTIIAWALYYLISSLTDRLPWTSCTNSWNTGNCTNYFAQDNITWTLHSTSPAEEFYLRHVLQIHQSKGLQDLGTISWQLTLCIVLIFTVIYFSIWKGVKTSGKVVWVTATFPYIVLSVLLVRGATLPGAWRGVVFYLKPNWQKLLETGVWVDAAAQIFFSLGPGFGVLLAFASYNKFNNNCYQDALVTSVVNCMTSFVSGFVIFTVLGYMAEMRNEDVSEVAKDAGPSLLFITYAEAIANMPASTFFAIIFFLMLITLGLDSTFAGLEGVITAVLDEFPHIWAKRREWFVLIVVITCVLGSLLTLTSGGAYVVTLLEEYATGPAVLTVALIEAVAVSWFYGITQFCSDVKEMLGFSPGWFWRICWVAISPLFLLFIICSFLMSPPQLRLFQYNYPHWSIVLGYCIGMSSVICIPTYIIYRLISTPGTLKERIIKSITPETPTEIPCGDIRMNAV
Chain of norepinephrine uptake site (norepinephrine transporter), rat forebrain membranes (Q9WTR4 1-597): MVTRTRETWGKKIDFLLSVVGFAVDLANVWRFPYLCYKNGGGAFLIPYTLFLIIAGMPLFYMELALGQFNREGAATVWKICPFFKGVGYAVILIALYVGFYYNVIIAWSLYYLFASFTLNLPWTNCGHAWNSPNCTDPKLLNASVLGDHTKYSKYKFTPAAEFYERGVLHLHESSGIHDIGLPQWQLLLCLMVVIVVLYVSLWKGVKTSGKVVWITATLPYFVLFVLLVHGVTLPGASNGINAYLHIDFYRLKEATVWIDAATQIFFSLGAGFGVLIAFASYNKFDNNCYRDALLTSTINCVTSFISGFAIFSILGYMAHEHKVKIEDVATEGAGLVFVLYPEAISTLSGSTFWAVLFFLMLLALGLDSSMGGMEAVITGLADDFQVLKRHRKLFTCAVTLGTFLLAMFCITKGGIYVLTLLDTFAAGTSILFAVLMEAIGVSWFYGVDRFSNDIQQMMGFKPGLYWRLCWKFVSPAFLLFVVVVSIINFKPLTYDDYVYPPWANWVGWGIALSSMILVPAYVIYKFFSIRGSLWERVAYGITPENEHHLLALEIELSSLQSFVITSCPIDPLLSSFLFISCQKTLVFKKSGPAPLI

Cl.Clc1ccc([C@@]23CNC[C@@H]2C3)cc1Cl (single isomer, unassigned) [(+)-1-(3,4-dichlorophenyl)-3-azabicyclo[3.1.0]hexane hydrochloride]
affinity for the norepinephrine uptake site compared with (±)-1-(3,4-dichlorophenyl)-3-azabicyclo[3.1.0]hexane HCl [1]: significantly greater affinity
affinity for the serotonin uptake site compared with (±)-1-(3,4-dichlorophenyl)-3-azabicyclo[3.1.0]hexane HCl [2]: significantly greater affinity
